# Results published in patent publication US9695155B2, “Herbicidal substituted pyrimidinyloxy benzene compounds” (E. I. DU PONT DE NEMOURS AND COMPANY, priority 2013, dated 2017).
# How the values were obtained:
# ragweed = assay: Test C postemergence; type: in vivo, Ambrosia elatior; details: for Plant response rating (0 to 100), Ragweed: 125 g ai/ha, postemergence; for Plant response rating, Ragweed: Postemergence, scale 0 to 100 (0 no effect, 100 complete control)
# How it was run: (§1)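 Visual ratings on a 0–100 scale (100 = complete control) were made versus untreated controls after 13–15 greenhouse days. Chemicals in a surfactant-containing non-phytotoxic solvent were applied either preemergence to seeds in loam–sand soil or postemergence to 1- to 4-leaf plants 2–18 cm tall.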
# large (Lg) crabgrass [1] = assay: Test C postemergence; type: in vivo, Digitaria sanguinalis; details: for Crabgrass, Large plant response rating: 16 g ai/ha, visual rating; for Crabgrass, Large plant response rating / Plant response rating (0 to 100), Crabgrass, Large: postemergence; for Crabgrass, Large plant response rating / Plant response rating, Crabgrass, Large: scale 0 to 100 (0 no effect, 100 complete control); for Plant response rating (0 to 100), Crabgrass, Large: 125 g ai/ha; for Plant response rating, Crabgrass, Large: Postemergence
# How it was run: as §1
# sedge, umbrella = assay: Test B flooded paddy test; type: in vivo, Cyperus difformis; details: Flood, 250 g ai/ha; 0 to 100 scale where 0 is no effect and 100 is complete control
# How it was run: (§2)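 Compound added straight to paddy water, with pots kept flooded 3 cm above soil, on plants grown to the 2-leaf stage. Visual scoring 0-100 (100 = complete control) against untreated controls after 13 to 15 greenhouse days.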
# wheat = assay: Test A preemergence; type: in vivo, Triticum aestivum; details: 125 g ai/ha, 0 to 100 scale where 0 is no effect and 100 is complete control
# How it was run: (§3)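 Visual 0–100 rating (100 = complete control) taken about 10 d post-treatment relative to untreated checks. Preemergence: directed soil spray on sown loam/sand pots. Postemergence: seedlings 2–10 cm, 1–2 leaf. Non-phytotoxic solvent formulation with surfactant.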
# rice = assay: Test B flooded paddy test; type: in vivo, Oryza sativa; details: Flood, 250 g ai/ha; 0 to 100 scale where 0 is no effect and 100 is complete control
# How it was run: as §2
# pigweed = assay: Test A postemergence; type: in vivo, Amaranthus retroflexus; details: 0 to 100 scale where 0 is no effect and 100 is complete control
# How it was run: as §3
# Italian ryegrass = assay: Test C postemergence; type: in vivo, Lolium multiflorum; details: for Plant response rating (0 to 100), Ryegrass, Italian: 125 g ai/ha, postemergence; for Plant response rating, Ryegrass, Italian: Postemergence, scale 0 to 100 (0 no effect, 100 complete control)
# How it was run: as §1
# galium = assay: Test C postemergence; type: in vivo, Galium aparine; details: for Galium plant response rating: 16 g ai/ha, visual rating; for Galium plant response rating / Plant response rating (0 to 100), Galium: postemergence; for Galium plant response rating / Plant response rating, Galium: scale 0 to 100 (0 no effect, 100 complete control); for Plant response rating (0 to 100), Galium: 125 g ai/ha; for Plant response rating, Galium: Postemergence
# How it was run: as §1
# large (Lg) crabgrass [2] = assay: Test A postemergence; type: in vivo, Digitaria sanguinalis; details: 0 to 100 scale where 0 is no effect and 100 is complete control
# How it was run: as §3
# soybean = assay: Test C postemergence; type: in vivo, Glycine max; details: for Plant response rating (0 to 100), Soybean: 125 g ai/ha, postemergence; for Plant response rating, Soybean: Postemergence, scale 0 to 100 (0 no effect, 100 complete control)
# How it was run: as §1
# blackgrass = assay: Test C postemergence; type: in vivo, Alopecurus myosuroides; details: for Blackgrass plant response rating: 16 g ai/ha, visual rating; for Blackgrass plant response rating / Plant response rating (0 to 100), Blackgrass: postemergence; for Blackgrass plant response rating / Plant response rating, Blackgrass: scale 0 to 100 (0 no effect, 100 complete control); for Plant response rating (0 to 100), Blackgrass: 125 g ai/ha; for Plant response rating, Blackgrass: Postemergence
# How it was run: as §1
# barnyardgrass [3] = assay: Test A preemergence; type: in vivo, Echinochloa crus-galli; details: for Plant response rating, Barnyardgrass: 125 g ai/ha, 0 to 100 scale where 0 is no effect and 100 is complete control; for Barnyardgrass plant response rating: 500 g ai/ha, 0 to 100 scale, 0 no effect, 100 complete control, approx. 10 days
# How it was run: as §3
# lambsquarters = assay: Test C postemergence; type: in vivo, Chenopodium album; details: for Plant response rating (0 to 100), Lambsquarters: 125 g ai/ha, postemergence; for Plant response rating, Lambsquarters: Postemergence, scale 0 to 100 (0 no effect, 100 complete control)
# How it was run: as §1
# yellow nutsedge = assay: Test C postemergence; type: in vivo, Cyperus esculentus; details: for Plant response rating (0 to 100), Nutsedge, Yellow: 125 g ai/ha, postemergence; for Plant response rating, Nutsedge, Yellow: Postemergence, scale 0 to 100 (0 no effect, 100 complete control)
# How it was run: as §1
# barnyardgrass [4] = assay: Test C postemergence; type: in vivo, Echinochloa crus-galli; details: for Barnyardgrass plant response rating: 16 g ai/ha, visual rating; for Barnyardgrass plant response rating / Plant response rating (0 to 100), Barnyardgrass: postemergence; for Barnyardgrass plant response rating / Plant response rating, Barnyardgrass: scale 0 to 100 (0 no effect, 100 complete control); for Plant response rating (0 to 100), Barnyardgrass: 125 g ai/ha; for Plant response rating, Barnyardgrass: Postemergence
# How it was run: as §1
Compound,"Plant response rating (0 to 100), Ragweed (ragweed)","Plant response rating, Ragweed (ragweed; 31 g ai/ha, 13 to 15 days)","Plant response rating, Ragweed (ragweed; 62 g ai/ha)","Crabgrass, Large plant response rating (large (Lg) crabgrass [1]; 13 to 15 days)","Plant response rating (0 to 100), Crabgrass, Large (large (Lg) crabgrass [1])","Plant response rating, Crabgrass, Large (large (Lg) crabgrass [1]; 31 g ai/ha, 13 to 15 days)","Plant response rating, Crabgrass, Large (large (Lg) crabgrass [1]; 62 g ai/ha)","Plant response rating, Sedge, Umbrella (sedge, umbrella)","Plant response rating, Wheat (wheat)","Plant response rating, Rice (rice)","Plant response rating, Pigweed (pigweed; 500 g ai/ha)","Plant response rating (0 to 100), Ryegrass, Italian (Italian ryegrass)","Plant response rating, Ryegrass, Italian (Italian ryegrass; 31 g ai/ha, 13 to 15 days)","Plant response rating, Ryegrass, Italian (Italian ryegrass; 62 g ai/ha)",Galium plant response rating (galium; 13 to 15 days),"Plant response rating (0 to 100), Galium (galium)","Plant response rating, Galium (galium; 31 g ai/ha, 13 to 15 days)","Plant response rating, Galium (galium; 62 g ai/ha)","Plant response rating, Crabgrass, Large (large (Lg) crabgrass [2]; 125 g ai/ha)","Plant response rating, Crabgrass, Large (large (Lg) crabgrass [2]; 500 g ai/ha)",other results
Fc1cnc(Oc2cccc(C(F)F)c2-n2cc(Cl)cn2)nc1 [Compound 94],45,15,55,5,10,5,10,30,0,0,100,5,0,0,45,80,70,80,50,90,"Plant response rating, Pigweed (pigweed; 125 g ai/ha): 100; Plant response rating (0 to 100), Soybean (soybean): 80; Plant response rating, Soybean (soybean; 31 g ai/ha, 13 to 15 days): 45; Plant response rating, Soybean (soybean; 62 g ai/ha): 85; Blackgrass plant response rating (blackgrass; 13 to 15 days): 0; Plant response rating (0 to 100), Blackgrass (blackgrass): 5; Plant response rating, Blackgrass (blackgrass; 31 g ai/ha, 13 to 15 days): 5; Plant response rating, Blackgrass (blackgrass; 62 g ai/ha): 5; Plant response rating, Barnyardgrass (barnyardgrass [3]): 80; Barnyardgrass plant response rating (barnyardgrass [3]): 100; Plant response rating (0 to 100), Lambsquarters (lambsquarters): 85; Plant response rating, Lambsquarters (lambsquarters; 31 g ai/ha, 13 to 15 days): 65; Plant response rating, Lambsquarters (lambsquarters; 62 g ai/ha): 75; Plant response rating (0 to 100), Nutsedge, Yellow (yellow nutsedge): 10; Plant response rating, Nutsedge, Yellow (yellow nutsedge; 31 g ai/ha, 13 to 15 days): 5; Plant response rating, Nutsedge, Yellow (yellow nutsedge; 62 g ai/ha): 45; Barnyardgrass plant response rating (barnyardgrass [4]; 13 to 15 days): 10; Plant response rating (0 to 100), Barnyardgrass (barnyardgrass [4]): 10; Plant response rating, Barnyardgrass (barnyardgrass [4]; 31 g ai/ha, 13 to 15 days): 10; Plant response rating, Barnyardgrass (barnyardgrass [4]; 62 g ai/ha): 10"
FC(F)Oc1cnn(-c2ccccc2Oc2ncc(Cl)cn2)c1 [Compound 98],40,10,30,5,5,5,5,85,0,15,100,25,0,5,50,80,60,75,80,100,"Plant response rating (0 to 100), Soybean (soybean): 90; Plant response rating, Soybean (soybean; 31 g ai/ha, 13 to 15 days): 40; Plant response rating, Soybean (soybean; 62 g ai/ha): 60; Blackgrass plant response rating (blackgrass; 13 to 15 days): 0; Plant response rating (0 to 100), Blackgrass (blackgrass): 20; Plant response rating, Blackgrass (blackgrass; 31 g ai/ha, 13 to 15 days): 5; Plant response rating, Blackgrass (blackgrass; 62 g ai/ha): 30; Plant response rating, Barnyardgrass (barnyardgrass [3]): 50; Barnyardgrass plant response rating (barnyardgrass [3]): 100; Plant response rating (0 to 100), Lambsquarters (lambsquarters): 98; Plant response rating, Lambsquarters (lambsquarters; 31 g ai/ha, 13 to 15 days): 35; Plant response rating, Lambsquarters (lambsquarters; 62 g ai/ha): 80; Plant response rating (0 to 100), Nutsedge, Yellow (yellow nutsedge): 5; Plant response rating, Nutsedge, Yellow (yellow nutsedge; 31 g ai/ha, 13 to 15 days): 10; Plant response rating, Nutsedge, Yellow (yellow nutsedge; 62 g ai/ha): 5; Barnyardgrass plant response rating (barnyardgrass [4]; 13 to 15 days): 5; Plant response rating (0 to 100), Barnyardgrass (barnyardgrass [4]): 15; Plant response rating, Barnyardgrass (barnyardgrass [4]; 31 g ai/ha, 13 to 15 days): 5; Plant response rating, Barnyardgrass (barnyardgrass [4]; 62 g ai/ha): 10"
